From patent US20250122218A1, “MODULATORS OF CYSTIC FIBROSIS TRANSMEMBRANE CONDUCTANCE REGULATOR” (Vertex Pharmaceuticals Incorporated, priority 2022, published 2025)
Where two headings read alike, the source gives them in different places.

Experiments:
[1] = target: T1, CFTR in F508del/MF-HBE cells (Homo sapiens, UniProt P13569, DEL508-508); assay: Ussing chamber assay of CFTR-mediated short-circuit currents (identification of potentiator compounds); format: cell-based; settings: potentiator incubated 18-24 hours at 37° C. in combination with 10 μM corrector, in the presence of 20% human serum, CFTR-mediated ISC
T1 construct: human bronchial epithelial (HBE) cells derived from CF subjects heterozygous for F508del and a minimal function CFTR mutation; endogenous in cells; host or cells: primary human bronchial epithelial cells from CF subjects (F508del/MF-HBE)
Outline: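 F508del/MF-HBE cultures were preincubated 18-24 h at 37° C with potentiator plus 10 μM of a fixed corrector compound in 20% human serum; compounds were kept present during measurement. ISC was recorded under voltage clamp (0 mV, 37° C, amiloride apical) and taken as the 20 μM forskolin peak minus the current after inhibitor cocktail.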

T1 sequence (P13569 with tags, fused parts or gaps DEL508-508): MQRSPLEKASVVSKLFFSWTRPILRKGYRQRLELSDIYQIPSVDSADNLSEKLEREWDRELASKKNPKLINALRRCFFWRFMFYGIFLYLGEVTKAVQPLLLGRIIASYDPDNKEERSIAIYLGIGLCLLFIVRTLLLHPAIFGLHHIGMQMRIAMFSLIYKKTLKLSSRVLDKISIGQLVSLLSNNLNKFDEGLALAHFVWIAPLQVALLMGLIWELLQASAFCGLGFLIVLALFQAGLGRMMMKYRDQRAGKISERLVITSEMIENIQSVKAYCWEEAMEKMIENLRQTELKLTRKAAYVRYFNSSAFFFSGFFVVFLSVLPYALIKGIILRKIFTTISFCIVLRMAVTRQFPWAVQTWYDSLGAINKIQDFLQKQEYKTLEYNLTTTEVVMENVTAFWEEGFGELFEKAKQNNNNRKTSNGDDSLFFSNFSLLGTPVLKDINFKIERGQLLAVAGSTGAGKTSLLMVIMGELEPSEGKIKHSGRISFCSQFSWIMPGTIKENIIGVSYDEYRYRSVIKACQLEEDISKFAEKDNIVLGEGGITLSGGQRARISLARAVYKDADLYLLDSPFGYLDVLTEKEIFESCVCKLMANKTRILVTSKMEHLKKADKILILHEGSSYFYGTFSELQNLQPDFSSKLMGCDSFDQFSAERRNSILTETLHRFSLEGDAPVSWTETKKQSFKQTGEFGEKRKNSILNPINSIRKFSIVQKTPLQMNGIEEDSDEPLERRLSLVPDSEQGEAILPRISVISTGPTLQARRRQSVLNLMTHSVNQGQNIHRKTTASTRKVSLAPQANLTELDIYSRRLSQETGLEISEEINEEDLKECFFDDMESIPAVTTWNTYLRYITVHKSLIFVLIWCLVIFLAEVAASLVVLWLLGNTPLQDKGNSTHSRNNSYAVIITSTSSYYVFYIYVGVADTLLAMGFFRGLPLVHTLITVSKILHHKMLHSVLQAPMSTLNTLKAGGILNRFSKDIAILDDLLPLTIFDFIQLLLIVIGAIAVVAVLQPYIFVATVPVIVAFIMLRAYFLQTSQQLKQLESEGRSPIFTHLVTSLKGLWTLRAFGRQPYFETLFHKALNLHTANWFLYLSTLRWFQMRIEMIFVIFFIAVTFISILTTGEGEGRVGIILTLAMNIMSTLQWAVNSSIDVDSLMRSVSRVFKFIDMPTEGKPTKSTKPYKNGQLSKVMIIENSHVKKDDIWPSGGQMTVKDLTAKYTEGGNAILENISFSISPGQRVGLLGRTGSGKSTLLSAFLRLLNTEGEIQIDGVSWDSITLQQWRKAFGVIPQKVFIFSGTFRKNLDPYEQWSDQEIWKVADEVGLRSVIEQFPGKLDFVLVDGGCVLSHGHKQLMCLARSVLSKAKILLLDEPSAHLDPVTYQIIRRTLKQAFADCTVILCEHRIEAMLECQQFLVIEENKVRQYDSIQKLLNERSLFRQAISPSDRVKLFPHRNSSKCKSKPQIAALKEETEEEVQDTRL

| Structure (SMILES) | EC50 [1] [nM] | also measured |
| --- | --- | --- |
| CC(C)(C)OC(=O)Nc1cc(C(F)(F)F)c2nc1-c1nnc(o1)C(OCc1ccccc1)(C(F)(F)F)CCCCN(C1CC(F)(F)C1)C2=O (stereo not shown) |  | ring closure, isolated yield (from CC(C)(C)OC(=O)Nc1cc(C(F)(F)F)c(C(=O)O)nc1-c1nnc(C(CCCCNC2CC(F)(F)C2)(OCc2ccccc2)C(F)(F)F)o1, amide bond, 13-membered ring, HATU/DIEA, DMF, 2.67 mM, 1.0 h): 33% |
| CC(C)N1CCCCC(OCc2ccccc2)(C(F)(F)F)C2=NN=C(O2)c2nc(c(C(F)(F)F)cc2N)CC1=O (stereo not shown) |  | ring closure, isolated yield (from CC(C)NCCCCC(OCc1ccccc1)(c1nnc(-c2nc(CC(=O)O)c(C(F)(F)F)cc2N)o1)C(F)(F)F, amide bond, 14-membered ring, T3P/DIEA, EtOAc/NMP, 33.9 mM, 2.0 h): 23% |
| CN1CCCCC(OCc2ccccc2)(C(F)(F)F)C2=NN=C(O2)c2nc(c(C(F)(F)F)cc2N)CC1=O (stereo not shown) |  | ring closure, isolated yield (from CNCCCCC(OCc1ccccc1)(c1nnc(-c2nc(CC(=O)O)c(C(F)(F)F)cc2N)o1)C(F)(F)F, amide bond, 14-membered ring, T3P/DIEA, EtOAc/NMP, 35.7 mM, 5.0 h): 45% |
| Nc1cc(C(F)(F)F)c2nc1-c1nnc(o1)C(OCc1ccccc1)(C(F)(F)F)CCCCN(Cc1ccccc1)C(=O)C2 (stereo not shown) |  | ring closure, isolated yield (from Nc1cc(C(F)(F)F)c(CC(=O)O)nc1-c1nnc(C(CCCCNCc2ccccc2)(OCc2ccccc2)C(F)(F)F)o1, amide bond, 14-membered ring, T3P/DIEA, EtOAc/NMP, 31.5 mM, 2.0 h): 66% |
| CC(C)(C)OC(=O)Nc1cc(C(F)(F)F)c2nc1-c1nnc(o1)C(O)(C(F)(F)F)c1cccc(c1)C=CCCC2C#N (mixture of isomers) |  | ring closure, isolated yield (from C=CCCC(C#N)c1nc(-c2nnc(C(O)(c3cccc(I)c3)C(F)(F)F)o2)c(NC(=O)OC(C)(C)C)cc1C(F)(F)F, cc_pd bond, 15-membered ring, Pd(OAc)2/P(o-tol)3/Et3N, MeCN, 9.4 mM, 80.0 °C): 93% |
| CC(C)(C)OC(=O)Nc1cc(C(F)(F)F)c2nc1-c1nnc(o1)C(OCc1ccccc1)(C(F)(F)F)CCC=CCCC2 (mixture of isomers) |  | ring closure, isolated yield (from C=CCCCc1nc(-c2nnc(C(CCC=C)(OCc3ccccc3)C(F)(F)F)o2)c(NC(=O)OC(C)(C)C)cc1C(F)(F)F, rcm bond, 14-membered ring, Grubbs II (22 mol%), toluene, 2.63 mM, 100.0 °C): 39% |
| COC1CCC=Cc2ccc(F)c(c2)C(O)(C(F)(F)F)C2=NN=C(O2)c2nc1c(C(F)(F)F)cc2NC(=O)OC(C)(C)C (mixture of isomers) |  | ring closure, isolated yield (from C=CCCC(OC)c1nc(-c2nnc(C(O)(c3cc(I)ccc3F)C(F)(F)F)o2)c(NC(=O)OC(C)(C)C)cc1C(F)(F)F, cc_pd bond, 15-membered ring, Pd(OAc)2/P(o-tol)3/Et3N, MeCN, 6.3 mM, 80.0 °C, 16.0 h): 62% |
| Nc1cc(C(F)(F)F)c2nc1-c1nnc(o1)[C@@](O)(C(F)(F)F)CCCCCN(C1(C3CC3)CC1)C2=O [Compound 253, (6R)-17-amino-12-(1-cyclopropylcyclo-propyl)-6-hydroxy-6,15-bis(trifluoromethyl)-19-oxa-3,4,12,18-tetrazatricyclo [12.3.1.12,5] nonadeca-1(18),2,4,14,16-pentaen-13-one] | < 500 |  |
| Nc1cc(C(F)(F)F)c2nc1-c1nnc(o1)[C@@](O)(C(F)(F)F)CCCCCN(Cc1cccc(OC(F)F)c1)C2=O [Compound 254, (6R)-17-amino-12-[[3-(difluoromethoxy)phenyl]methyl]-6-hydroxy-6,15-bis(trifluoromethyl)-19-oxa-3,4,12,18-tetrazatricyclo [12.3.1.12,5] nonadeca-1(18),2,4,14,16-pentaen-13-one] | < 500 |  |
| Nc1cc(C(F)(F)F)c2nc1-c1nnc(o1)[C@@](O)(C(F)(F)F)CCCCCN(Cc1ccc(F)c(C3CC3)c1)C2=O [Compound 255, (6R)-17-amino-12-[(3-cyclopropyl-4-fluoro-phenyl)methyl]-6-hydroxy-6,15-bis(trifluoromethyl)-19-oxa-3,4,12,18-tetrazatricyclo [12.3.1.12,5] nonadeca-1(18),2,4,14,16-pentaen-13-one] | < 500 |  |
| Nc1cc(C(F)(F)F)c2nc1-c1nnc(o1)[C@@](O)(C(F)(F)F)CCCCCN(Cc1ccnc(OC3CCC3)c1)C2=O [Compound 270, (6R)-17-amino-12-[[2-(cyclobutoxy)-4-pyridyl]methyl]-6-hydroxy-6,15-bis(trifluoromethyl)-19-oxa-3,4,12,18-tetrazatricyclo [12.3.1.12,5] nonadeca-1(18),2,4,14,16-pentaen-13-one] | < 500 |  |

The next lines start with results.

| EC50 [1] [nM] | Structure (SMILES) | also measured |
| --- | --- | --- |
| < 500 | Nc1cc(C(F)(F)F)c2nc1-c1nnc(o1)[C@@](O)(C(F)(F)F)CCCCCN(Cc1ccc(F)c(C3CCC3)c1)C2=O [Compound 256, (6R)-17-amino-12-[(3-cyclobutyl-4-fluoro-phenyl)methyl]-6-hydroxy-6,15-bis(trifluoromethyl)-19-oxa-3,4,12,18-tetrazatricyclo [12.3.1.12,5] nonadeca-1(18),2,4,14,16-pentaen-13-one] |  |
| < 500 | Nc1cc(C(F)(F)F)c2nc1-c1nnc(o1)[C@@](O)(C(F)(F)F)CCCCCN(Cc1cc(F)cc(Cl)c1)C2=O [Compound 257, (6R)-17-amino-12-[(3-chloro-5-fluoro-phenyl)methyl]-6-hydroxy-6,15-bis(trifluoromethyl)-19-oxa-3,4,12,18-tetrazatricyclo [12.3.1.12,5] nonadeca-1(18),2,4,14,16-pentaen-13-one] |  |
| < 500 | Nc1cc(C(F)(F)F)c2nc1-c1nnc(o1)[C@@](O)(C(F)(F)F)CCCCCN(Cc1cc(F)cc(C(F)(F)F)c1)C2=O [Compound 258, (6R)-17-amino-12-[[3-fluoro-5-(trifluoromethyl)phenyl]methyl]-6-hydroxy-6,15-bis(trifluoromethyl)-19-oxa-3,4,12,18-tetrazatricyclo [12.3.1.12,5] nonadeca-1(18),2,4,14,16-pentaen-13-one] |  |
| < 500 | Nc1cc(C(F)(F)F)c2nc1-c1nnc(o1)[C@@](O)(C(F)(F)F)CCCCCN(Cc1cc(C3CC3)ccc1F)C2=O [Compound 259, (6R)-17-amino-12-[(5-cyclopropyl-2-fluoro-phenyl)methyl]-6-hydroxy-6,15-bis(trifluoromethyl)-19-oxa-3,4,12,18-tetrazatricyclo [12.3.1.12,5] nonadeca-1(18),2,4,14,16-pentaen-13-one] |  |
| < 500 | Nc1cc(C(F)(F)F)c2nc1-c1nnc(o1)[C@@](O)(C(F)(F)F)CCCCCN(Cc1cc(C3CCC3)ccc1F)C2=O [Compound 260, (6R)-17-amino-12-[(5-cyclobutyl-2-fluoro-phenyl)methyl]-6-hydroxy-6,15-bis(trifluoromethyl)-19-oxa-3,4,12,18-tetrazatricyclo [12.3.1.12,5] nonadeca-1(18),2,4,14,16-pentaen-13-one] |  |
| < 500 | Nc1cc(C(F)(F)F)c2nc1-c1nnc(o1)[C@@](O)(C(F)(F)F)CCCCCN(Cc1ccc(OC(F)(F)F)c(F)c1)C2=O [Compound 265, (6R)-17-amino-12-[[3-fluoro-4-(trifluoromethoxy)phenyl]methyl]-6-hydroxy-6,15-bis(trifluoromethyl)-19-oxa-3,4,12,18-tetrazatricyclo [12.3.1.12,5] nonadeca-1(18),2,4,14,16-pentaen-13-one] |  |
| < 500 | Nc1cc(C(F)(F)F)c2nc1-c1nnc(o1)[C@@](O)(C(F)(F)F)CCCCCN(Cc1ccc(OC(F)F)cc1)C2=O [Compound 266, (6R)-17-amino-12-[[4-(difluoromethoxy)phenyl]methyl]-6-hydroxy-6,15-bis(trifluoromethyl)-19-oxa-3,4,12,18-tetrazatricyclo [12.3.1.12,5] nonadeca-1(18),2,4,14,16-pentaen-13-one] |  |
| < 500 | Nc1cc(C(F)(F)F)c2nc1-c1nnc(o1)[C@@](O)(C(F)(F)F)CCCCCN(Cc1ccc(OC(F)F)c(F)c1)C2=O [Compound 267, (6R)-17-amino-12-[[4-(difluoromethoxy)-3-fluoro-phenyl]methyl]-6-hydroxy-6,15-bis(trifluoromethyl)-19-oxa-3,4,12,18-tetrazatricyclo [12.3.1.12,5] nonadeca-1(18),2,4,14,16-pentaen-13-one] |  |
| < 500 | Nc1cc(C(F)(F)F)c2nc1-c1nnc(o1)[C@@](O)(C(F)(F)F)CCCCCN(Cc1ccc(OC(F)F)nc1)C2=O [Compound 268, (6R)-17-amino-12-[[6-(difluoromethoxy)-3-pyridyl]methyl]-6-hydroxy-6,15-bis(trifluoromethyl)-19-oxa-3,4,12,18-tetrazatricyclo [12.3.1.12,5] nonadeca-1(18),2,4,14,16-pentaen-13-one] |  |
| > 1000 | Nc1cc(C(F)(F)F)c2nc1-c1nnc(o1)[C@@](O)(C(F)(F)F)CCCCCN(Cc1ccnc(OC(F)F)c1)C2=O [Compound 269, (6R)-17-amino-12-[[2-(difluoromethoxy)-4-pyridyl]methyl]-6-hydroxy-6,15-bis(trifluoromethyl)-19-oxa-3,4,12,18-tetrazatricyclo [12.3.1.12,5] nonadeca-1(18),2,4,14,16-pentaen-13-one] |  |
| < 500 | N#Cc1cccc(CN2CCCCC[C@](O)(C(F)(F)F)C3=NN=C(O3)c3nc(c(C(F)(F)F)cc3N)C2=O)c1 [Compound 271, 3-[[(6R)-17-amino-6-hydroxy-13-oxo-6,15-bis(trifluoromethyl)-19-oxa-3,4,12,18-tetrazatricyclo[12.3.1.12,5]nonadeca-1(18),2,4,14,16-pentaen-12-yl]methyl]benzonitrile] |  |
